Measurements published in article PMC10447463, “Data-mining unveils structure–property–activity correlation of viral infectivity enhancing self-assembling peptides” (Nature Communications, 2023).

Experiment: Aggregate analysis by widefield fluorescence microscopy
Format: physicochemical
Method in brief: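 Brightfield images were acquired alongside ThT fluorescence so that aggregates lacking ThT signal were also captured. Preformed peptide fibrils had been incubated 1 d at RT in PBS before dilution to 0.1 mg/mL in 50 µM ThT, and particles above 10 µm^2 were then counted and sized automatically.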

[1] = Fig S8 panels A, C, 3 fields of 1330 µm x 1330 µm
[2] = Fig S8 panels B, D, average aggregate area, 3 fields of 1330 µm x 1330 µm
[3] = Fig S8 panels B, D, median aggregate area, 3 fields of 1330 µm x 1330 µm
[4] = Fig S8 panels B, D, 3 fields of 1330 µm x 1330 µm
[5] = Fig S8 panels B, D, widefield fluorescence microscopy, 3 fields of 1330 µm x 1330 µm

Row | Substance | Avg Area in 3 *(1330 µm *1330 µm) (Fig S8 panels A, C) | Log 10 Number of aggregates in 3 * (1330 µm *1330 µm) (Fig S8 panels A, C) | Median Area in 3 * (1330 µm *1330 µm) (Fig S8 panels A, C) | log Avg Area in 3 * ( (1330 µm *1330 µm)) (Fig S8 panels A, C) | log Median Area in 3 * ( (1330 µm *1330 µm)) (Fig S8 panels A, C) | log Total Area of all particles in 3 * (1330 µm *1330 µm) (Fig S8 panels A, C) | Number of aggregates in 3 * (1330 µm *1330 µm) [1] | Avg Area in 3 *(1330 µm *1330 µm) [2] | Median Area in 3 * (1330 µm *1330 µm) [3] | Total Area of all particles in 3 * (1330 µm *1330 µm) [4] | Number of aggregates in 3 * (1330 µm *1330 µm) [5]
1 | CHLHLQL [CN9] | 330.1 | 1.5563 | 35.7 | 2.5187 | 1.553 | 4.075 | 36 | 330.1 | 35.7 | 11885.21533 | 36
2 | CKAKAQANMWQ [BL8] | 857.7 | 0.8016 | 479.9 | 2.933 | 2.681 | 3.735 | 6.333 | 857.7 | 479.9 | 5432 | 6.333
3 | CKFKFQF [BL4] | 86.55 | 2.108 | 22.111 | 1.937 | 1.345 | 4.0456 | 128.3 | 86.55 | 22.111 | 11106.98933 | 128.3
4 | CKFKFQFNM [BL3] | 19.89 | 2.2313 | 11.55 | 1.299 | 1.063 | 3.53 | 170.3 | 19.89 | 11.55 | 3388 | 170.3
5 | CKFKFQFW [TM72] | 28.12 | 2.713 | 16.689 | 1.449 | 1.222 | 4.162 | 517 | 28.12 | 16.689 | 14537.202 | 517
6 | CKFKQFF [CK15] | 2578 | 0.7533 | 2243 | 3.411 | 3.351 | 4.165 | 5.667 | 2578 | 2243 | 14606.95267 | 5.667
7 | CKFKQFFNM [CK14] | 31.08 | 2.848 | 15.21 | 1.4925 | 1.182 | 4.34 | 704 | 31.08 | 15.21 | 21881.13867 | 704
8 | CKIKIQI [MG3b] | 58.72 | 2.501 | 16.48 | 1.7688 | 1.2169 | 4.27 | 317 | 58.72 | 16.48 | 18614.711 | 317
